Test results: patent US11045447B2, “Methods for inducing synaptogenesis with synaptic growth factor activating compounds” ([…], INC., priority 2018, dated 2021)
“And” between values parts separate entries of the source, which are not always exact repeats. Equal values may be shown once. “Also recorded” adds a separate entry of the source.

Columns and labels:
Format in all cases: in vivo, human
[1] = system: patients with advanced Alzheimer's disease; assay: Safety and tolerability (treatment emergent adverse events) in the same trial; conditions: 40 μg iv, 12 weeks
Experimental: Adults aged 55-85 with cognitive deficits present for at least 2 years, MMSE-2 of 4-15, inclusive, and a diagnosis of Alzheimer's dementia were randomly assigned to receive blinded intravenous infusions of bryostatin 24 μg or matching placebo at weeks 0 and 1. The 24 μg and 48 μg doses during the first two weeks of the 20 and 40 μg protocols respectively were considered to be “loading” doses thought to be beneficial from prior experience with Compassionate Use trial patients. Nelson et al., Alzheimers Dis. 2017 58: 521-535. In one arm, the two 24 μg doses were followed by 20 μg doses at weeks 5, 7, 9 and 11 with the Severe Impairment Battery (SIB) measured at baseline and weeks 5, 9, 13, and 15. In a second arm, the two 48 μg doses at weeks 0 and 1 were followed by 40 μg doses at weeks 5, 7, 9, and 11 with the SIB measured at baseline and weeks 5, 9, 13, and 15. The subjects were stratified by MMSE-2 in two strata: Stratum 1 (4-9) and Stratum 2 (10-15). The first primary endpoint was safety and tolerability, assessed by treatment emergent adverse events (TEAEs) with a sample size of 150 subjects randomized 1:1:1. Although efficacy was the secondary measure, the primary efficacy endpoint was SIB improvement at week 13 evaluated using a mixed model for repeated measures. A secondary efficacy endpoint was ADCS-ADL Sev. […]

[2] = system: patients with advanced Alzheimer's disease; assay: ADCS-ADL-SIV (secondary efficacy endpoint) in the same trial
Experimental: (§1) Adults aged 55-85 with cognitive deficits present for at least 2 years, MMSE-2 of 4-15, inclusive, and a diagnosis of Alzheimer's dementia were randomly assigned to receive blinded intravenous infusions of bryostatin 24 μg or matching placebo at weeks 0 and 1. The 24 μg and 48 μg doses during the first two weeks of the 20 and 40 μg protocols respectively were considered to be “loading” doses thought to be beneficial from prior experience with Compassionate Use trial patients. Nelson et al., Alzheimers Dis. 2017 58: 521-535. In one arm, the two 24 μg doses were followed by 20 μg doses at weeks 5, 7, 9 and 11 with the Severe Impairment Battery (SIB) measured at baseline and weeks 5, 9, 13, and 15. In a second arm, the two 48 μg doses at weeks 0 and 1 were followed by 40 μg doses at weeks 5, 7, 9, and 11 with the SIB measured at baseline and weeks 5, 9, 13, and 15. The subjects were stratified by MMSE-2 in two strata: Stratum 1 (4-9) and Stratum 2 (10-15). The first primary endpoint was safety and tolerability, assessed by treatment emergent adverse events (TEAEs) with a sample size of 150 subjects randomized 1:1:1. Although efficacy was the secondary measure, the primary efficacy endpoint was SIB improvement at week 13 evaluated using a mixed model for repeated measures. A secondary efficacy endpoint was ADCS-ADL Sev. The primary safety population included all subjects who received at least 1 dose of study drug, and efficacy was evaluated in a modified intent to treat (mITT) population that received at least 1 dose of study drug and had at least one treatment evaluation. Efficacy was evaluated both as a primary end-point in the modified intent-to-treat (mITT) population and also as a primary end point in a Completers population that included all patients that completed the entire protocols as described above.

[3] = system: patients with advanced Alzheimer's disease; assay: Severe Impairment Battery (SIB) in double-blind, randomized, placebo-controlled trial; design: key to SIB Total LS Mean change from baseline (MMRM) / SIB Total LS Mean change (MMRM with memantine covariate) / SIB Delta from baseline, Mean (unadjusted): change from baseline in SIB total score; low scores = greater impairment; conditions: for SIB Total Difference vs. Placebo (MMRM) / SIB Total LS Mean change from baseline (MMRM): 20 μg iv; for SIB Delta from baseline, Mean (unadjusted): Low dose (20)
Experimental: In a double-blind, randomized, placebo-controlled trial, bryostatin was administered by intravenous infusion (˜45 minutes) to patients with advanced Alzheimer's disease for 12 weeks at doses of 20 or 40 μg. Randomization was stratified at baseline by severe (MMSE-2, 4-9) and moderate (MMSE-2, 10-15) dementia, wherein MMSE-2 refers to Mini-Mental State Examination, version 2. The MMSE or Folstein test is a 30-point questionnaire that is used extensively in clinical and research settings to measure cognitive impairment. Low scores indicate greater impairment. Version 2 of the MMSE was published in 2010, expanding the original questionnaire's usefulness in populations with milder forms of cognitive impairment. […] Importantly, this cognitive improvement persisted and increased 30 days after all bryostatin dosing had been completed.
as §1
The SIB efficacy measurement at 30 days (week 15) post dosing—after all dosing had been completed (last dose administered at week 11)—was a pre-specified exploratory endpoint. Week 15 results were only included for subjects who were not re-randomized. The mixed model assumes missing at random, but order of enrollment in the trial was not random. Since order of enrollment was not random, the assumption of missing at random is not met. For this reason, only including week 15 for those who were not re-randomized is an appropriate way to estimate week 15 results, but not an appropriate way to estimate results at the earlier visits. For this reason, estimates up through week 13 are from a mixed model that only included data through week 13 and the week 15 estimates are from a separate model. Results were generated using a mixed model with repeated measures predicting change from baseline in SIB Total Score as the response variable and using baseline score, baseline MMSE strata, treatment, visit (categorical), and visit (treatment) as predictors. […]

[4] = Week 15 (30 days post dosing), Completer
[5] = Week 15 (30 days post dosing), FAS
[6] = 20 μg, Week 5, Completer, With Memantine
[7] = 20 μg, Week 5, Completer, Without Memantine
[8] = 20 μg, Week 5, FAS, With Memantine
[9] = 20 μg, Week 5, FAS, Without Memantine
[10] = 20 μg, Week 9, Completer, With Memantine
[11] = 20 μg, Week 9, Completer, Without Memantine
[12] = 20 μg, Week 9, FAS, With Memantine
[13] = 20 μg, Week 9, FAS, Without Memantine
[14] = 20 μg, Week 13, Completer, With Memantine
[15] = 20 μg, Week 13, Completer, Without Memantine
[16] = 20 μg, Week 13, FAS, With Memantine
[17] = 20 μg, Week 13, FAS, Without Memantine
[18] = 20 μg, Week 15, Completer, With Memantine
[19] = 20 μg, Week 15, Completer, Without Memantine
[20] = 20 μg, Week 15, FAS, With Memantine
[21] = 20 μg, Week 15, FAS, Without Memantine

`CCC/C=C/C=C/C(=O)O[C@H]1/C(=C/C(=O)OC)C[C@H]2C[C@H]([C@@H](C)O)OC(=O)C[C@H](O)C[C@@H]3C[C@H](OC(C)=O)C(C)(C)[C@](O)(C[C@@H]4C/C(=C/C(=O)OC)C[C@H](/C=C/C(C)(C)[C@]1(O)O2)O4)O3` [Bryostatin, bryostatin-1] was tested, and the Safety results [1] was “more adverse events”, the “ADCS-ADL, subgroups with and without memantine as background SOC therapy (in words)” value ([2]; 20 μg) was “not significantly different above placebo” and the “ADCS-ADL difference from placebo” value ([2]; 20 μg, completers group) was 1.6. The “ADCS-ADL difference from placebo” value ([2]; 20 μg, mITT group) was 1.4, the “ADCS-ADL efficacy (in words)” value ([2]; 40 μg dose) was “significant for the 20 μg but not the 40 μg dose” and the “SIB versus baseline and placebo (in words)” value ([3]; 20 μg dose, throughout the 13-week trial) was “sustained improvement in SIB”. For the same compound, the “SIB Total Difference vs. Placebo (MMRM)” value ([3]; Week 5, Completer) was 4.00, the “SIB Total LS Mean change from baseline (MMRM)” value ([3]; Week 5, Completer) was 1.67 and the “SIB Total Difference vs. Placebo (MMRM)” value ([3]; Week 5, FAS) was 2.96. For the same compound, the “SIB Total LS Mean change from baseline (MMRM)” value ([3]; Week 5, FAS) was 1.18, the “SIB Total Difference vs. Placebo (MMRM)” value ([3]; Week 9, Completer) was 1.85 and the “SIB Total LS Mean change from baseline (MMRM)” value ([3]; Week 9, Completer) was 1.28. The “SIB Total Difference vs. Placebo (MMRM)” value ([3]; Week 9, FAS) was 1.03, the “SIB Total LS Mean change from baseline (MMRM)” value ([3]; Week 9, FAS) was 0.94 and the “SIB Total Difference vs. Placebo (MMRM)” value ([3]; Week 13, Completer) was 2.63. The “SIB Total LS Mean change from baseline (MMRM)” value ([3]; Week 13, Completer) was 1.51, the “SIB Total Difference vs. Placebo (MMRM)” value ([3]; Week 13, Completer, listed as bryostatin) was 2.6 and the “SIB Total Difference vs. Placebo (MMRM)” value ([3]; Week 13, FAS) was 1.94. The “SIB Total LS Mean change from baseline (MMRM)” value ([3]; Week 13, FAS) was 1.16, the “SIB Total Difference vs. Placebo (MMRM)” value [3, 4] was 4.09 and the “SIB Total LS Mean change from baseline (MMRM)” value [3, 4] was 1.96. The “SIB Total Difference vs. Placebo (MMRM)” value ([3]; Week 15 (30 days post dosing), Completer, listed as bryostatin) was 4.0 and 4.09, the “SIB Total Difference vs. Placebo (MMRM)” value [3, 5] was 3.59 and the “SIB Total LS Mean change from baseline (MMRM)” value [3, 5] was 1.77. The “SIB Total Difference vs. Placebo (MMRM with memantine covariate)” value [3, 6] was 2.94, the “SIB Total LS Mean change (MMRM with memantine covariate)” value [3, 6] was 0.61 and the “SIB Total Difference vs. Placebo (MMRM with memantine covariate)” value [3, 7] was 5.38. For the same compound, the “SIB Total LS Mean change (MMRM with memantine covariate)” value [3, 7] was 3.22, the “SIB Total Difference vs. Placebo (MMRM with memantine covariate)” value [3, 8] was 1.96 and the “SIB Total LS Mean change (MMRM with memantine covariate)” value [3, 8] was 0.26. The “SIB Total Difference vs. Placebo (MMRM with memantine covariate)” value [3, 9] was 4.48, the “SIB Total LS Mean change (MMRM with memantine covariate)” value [3, 9] was 2.74 and the “SIB Total Difference vs. Placebo (MMRM with memantine covariate)” value [3, 10] was 0.90. The “SIB Total LS Mean change (MMRM with memantine covariate)” value [3, 10] was −0.16, the “SIB Total Difference vs. Placebo (MMRM with memantine covariate)” value [3, 11] was 2.66 and the “SIB Total LS Mean change (MMRM with memantine covariate)” value [3, 11] was 3.34. For the same compound, the “SIB Total Difference vs. Placebo (MMRM with memantine covariate)” value [3, 12] was 0.09, the “SIB Total LS Mean change (MMRM with memantine covariate)” value [3, 12] was −0.33 and the “SIB Total Difference vs. Placebo (MMRM with memantine covariate)” value [3, 13] was 2.08. For the same compound, the “SIB Total LS Mean change (MMRM with memantine covariate)” value [3, 13] was 2.95, the “SIB Total Difference vs. Placebo (MMRM with memantine covariate)” value [3, 14] was 0.56 and the “SIB Total LS Mean change (MMRM with memantine covariate)” value [3, 14] was −0.39. For the same compound, the “SIB Total Difference vs. Placebo (MMRM with memantine covariate)” value [3, 15] was 5.53, the “SIB Total LS Mean change (MMRM with memantine covariate)” value [3, 15] was 4.22 and the “SIB Total Difference vs. Placebo (MMRM with memantine covariate)” value [3, 16] was −0.14. For the same compound, the “SIB Total LS Mean change (MMRM with memantine covariate)” value [3, 16] was −0.60, the “SIB Total Difference vs. Placebo (MMRM with memantine covariate)” value [3, 17] was 5.11 and the “SIB Total LS Mean change (MMRM with memantine covariate)” value [3, 17] was 3.83. For the same compound, the “SIB Total Difference vs. Placebo (MMRM with memantine covariate)” value [3, 18] was 1.45, the “SIB Total LS Mean change (MMRM with memantine covariate)” value [3, 18] was −0.71 and the “SIB Total Difference vs. Placebo (MMRM with memantine covariate)” value [3, 19] was 6.36. For the same compound, the “SIB Total LS Mean change (MMRM with memantine covariate)” value [3, 19] was 6.24, the “SIB Total Difference vs. Placebo (MMRM with memantine covariate)” value [3, 20] was 0.79 and the “SIB Total LS Mean change (MMRM with memantine covariate)” value [3, 20] was −0.83. For the same compound, the “SIB Total Difference vs. Placebo (MMRM with memantine covariate)” value [3, 21] was 5.93, the “SIB Total LS Mean change (MMRM with memantine covariate)” value [3, 21] was 5.88 and the “Mean slope of SIB over time, Weighted Slope” value ([3]; 20 μg, weighted by number of non-zero SIB scores, second column group (memantine exposed, stratum not given)) was −0.099. The “SIB versus baseline and placebo (in words)” value ([3]; 40 μg dose) was “lack of efficacy; also recorded: no SIB improvement”, the “SIB Delta from baseline, Mean (unadjusted)” value (“SIB Delta from baseline, Mean” below) ([3]; Ave of Week 13 and 15, Memantine Exposed Patients, FAS) was −0.727 and the “SIB Delta from baseline, Mean” value ([3]; Ave of Week 13 and 15, Memantine Treatment-Naïve Patients, FAS) was 5.406. For the same compound, the “SIB Delta from baseline, Mean” value ([3]; Week 5, Memantine Exposed Patients, FAS) was 0.077, the “SIB Delta from baseline, Mean” value ([3]; Week 5, Memantine Treatment-Naïve Patients, FAS) was 3.444 and the “SIB Delta from baseline, Mean” value ([3]; Week 9, Memantine Exposed Patients, FAS) was −0.087. For the same compound, the “SIB Delta from baseline, Mean” value ([3]; Week 9, Memantine Treatment-Naïve Patients, FAS) was 3.467, the “SIB Delta from baseline, Mean” value ([3]; Week 13, Memantine Exposed Patients, FAS) was −0.545 and the “SIB Delta from baseline, Mean” value ([3]; Week 13, Memantine Treatment-Naïve Patients, FAS) was 4.500. For the same compound, the “Treatment effect on SIB at 13/15 weeks from baseline (ANCOVA coefficient, 20 μg vs placebo)” value ([3]; Memantine Exposed, adjusted for Base SIB, MMSE-2) was −0.620, the “Treatment effect on SIB at 13/15 weeks from baseline (ANCOVA coefficient, 20 μg vs placebo)” value ([3]; Memantine Exposed, adjusted for Baseline SIB) was −0.531 and the “Treatment effect on SIB at 13/15 weeks from baseline (ANCOVA coefficient, 20 μg vs placebo)” value ([3]; Memantine Naïve, adjusted for Base SIB, MMSE-2) was 5.923. For the same compound, the “Treatment effect on SIB at 13/15 weeks from baseline (ANCOVA coefficient, 20 μg vs placebo)” value ([3]; Memantine Naïve, adjusted for Baseline SIB) was 5.426 and the “SIB improvement (in words)” value ([3]; patients on memantine, week 13 or 15) was “no SIB improvement”.
